Results published in patent US20230219965A1 (KSQ Therapeutics, Inc., priority 2020, published 2023).
Where two headings read alike, the source gives them in different places.

Assays:
[1] = target: USP1/UAF1 enzyme (Homo sapiens, UniProt O94782); assay: USP1/UAF1 deubiquitination assay (ubiquitin-rhodamine 110 substrate); format: biochemical; settings: read-out: USP1 IC50 (Ub-Rho)
Procedure, shortened: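 Cleavage of 150 nM ubiquitin-rhodamine 110 by 0.05 nM USP1/UAF1 was followed as fluorescence (Ex480/Em540, kinetic, 30 min) in Tris-HCl pH 7.8 buffer with EDTA, BSA, DTT and Tween-20. Compounds, top 10 μM, were preincubated with enzyme 10 min; % inhibition against no-enzyme and DMSO wells gave four-parameter IC50s.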

[2] = Liver microsomal metabolic stability, human liver microsomes (HLM); settings: human, liver microsomes
[3] = Liver microsomal metabolic stability, rat liver microsomes (RLM); settings: rat, liver microsomes, t1/2 (min) in RLM, 1 μM compound, 1 mg/mL microsomes, NADPH
Description: Samples were prepared by adding 222.5 μL of a master solution (100 mM phosphate buffer and 1 mg/mL liver microsomes (HLM or RLM)) and 25 μL of a 10 mM NADPH solution to incubation plates, which were then warmed for 10 min. Each compound was separately dissolved in DMSO to prepare 10 mM stock solutions, which were then diluted to 100 μM with acetonitrile. A reaction was started by adding 2.5 μL of the 100 μM solution of each compound to separate incubation plates such that the final concentration of for each compound in each plate was 1 μM.
25 μL aliquots of each sample were taken at 0.5, 5, 10, 15, 20 and 30 minutes, and the reaction was stopped by adding 5 volumes of cold acetonitrile with IS (100 nM alprazolam, 200 nM caffeine and 100 nM tolbutamide). The samples were then centrifuged at 3,220 G for 30 minutes, and 100 μL of the supernatant fluid was mixed with 100 μL of ultra-pure H2O.
The samples were then analyzed by LC-MS/MS. Peak areas were determined from extracted ion chromatograms. Slope values (k) were determined by linear regression of the natural logarithm of the remaining percentage of the compound vs. incubation time curve. The in vitro half-life (in vitro t1/2) was determined from the slope value using the following equation:

[4] = ADME solubility determination in PBS at pH 2.0 and pH 7.4; format: physicochemical; settings: phosphate buffered saline, 25 °C, thermodynamic from solid
Procedure, shortened: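 Solubility was read by LC-MS/MS on centrifuged supernatants, calibrated to a known-concentration standard and corrected for dilution. Compound, dried down from 10 mM DMSO stock, was equilibrated 24 h at 25° C with shaking in PBS at pH 2.0 or pH 7.4.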

[5] = test system: Ub-PCNA levels in the nucleus of ES2 cells (USP1 activity); assay: ES2 Ub-PCNA immunofluorescence (IF) assay; format: cell-based; settings: Homo sapiens, ES-2; ES2 cells, 3 hours, Ub-PCNA immunofluorescence; read-out: USP1 IC50 (Ub-PCNA)
Description: USP1 is a deubiquitinating enzyme that removes ubiquitin from mono-ubiquitinated Proliferating Cell Nuclear Antigen (Ub-PCNA). The levels of Ub-PCNA in the nucleus of cells can be used to assess the activity of USP1. An immunofluorescence assay can be established to monitor Ub-PCNA levels in the ovarian cancer cell line, ES2.
An assay can be performed by first plating 5000 ES2 cells per well in black 96 well plates (Corning #3904) and then incubating overnight at 37° C. and 5% CO2. Compounds, resuspended in DMSO, can be added to the cells, to a final DMSO concentration of 0.3%. Plates can be incubated at 37° C. and 5% CO2 for 3 hours.
Cells can be then fixed and stained by first removing the media from each plate and fixing the cells with −20° C. methanol for 5 minutes at room temperature. Fixation plates can be washed with Tris buffered saline with tween (Boston Bioproducts #IBB-855) 5 times for 5 minutes each. Plates can be blocked for 1 hour with 50 μl of Odyssey blocking buffer (Licor #327-50000) at room temperature with rocking. Block can be removed from all wells and 50 μl of primary antibody was added to each well. Ub-PCNA ab (Cell Signaling Technology #13439) can be diluted at 1:400 in Odyssey blocking buffer. Plates can be sealed and incubated overnight at 4° C. Primary antibodies can be removed from the plates and plates can be washed with Tris buffered saline with tween 5 times for 5 minutes. Plates can be stained for 1 hour at room temperature with rocking with 50 μl of secondary antibodies diluted 1:10,000 in Odyssey blocking buffer at room temperature (anti-rabbit Alexa 488). Antibodies can be removed from the plates and plates can be washed with Tris buffered saline with tween 3 times for 5 minutes. Plates can be washed once with DAPI (Chemometec #910-3012) stain diluted 1:5000 (Stock solution of 500 μg/ml) in tris buffered saline with tween for 5 minutes. DAPI stain can be removed and plates can be washed one additional time for 5 minutes with tris buffered saline with tween. Wash can be removed from the plate and 100 μl tris buffered saline with tween can be added back to all wells, Plates can be sealed with Foil seals or black plate seals and plates can be stored at 4° C. until they can be imaged.
Imaging of the plates can be performed by first locating the nuclei using the DAPI stain. A mask can be created by drawing a circle slightly smaller than each nucleus. Ub-PCNA intensities can be measured for each individual nucleus counted. A histogram of all Ub-PCNA nuclear intensities measured in untreated wells can be generated and a 95% cutoff can be established. This 95% cutoff can be used to determine the number of Positive cells that have Ub-PCNA values higher than the 95% cutoff. The number of positive cells can be expressed as a percentage by dividing by the total number of cells in the well. This percent positive value can be used to graph all data and to determine AC50 values.
USP1 is a deubiquitinating enzyme that removes ubiquitin from mono-ubiquitinated
Proliferating Cell Nuclear Antigen (Ub-PCNA). The levels of Ub-PCNA in the nucleus of cells was used to assess the activity of USP1. An immunofluorescence assay was established to monitor Ub-PCNA levels in the ovarian cancer cell line, ES2.
This assay was performed by first plating 5000 ES2 cells per well in black 96 well plates (Corning #3904) and then incubated overnight at 37° C. and 5% CO2. Compounds, resuspended in DMSO, were added to the cells, to a final DMSO concentration of 0.3%. Plates were incubated at 37° C. and 5% CO2 for 3 hours.
Cells were then fixed and stained by first removing the media from each plate and fixing the cells with −20° C. methanol for 5 minutes at room temperature. Following fixation plates were washed with Tris buffered saline with tween (Boston Bioproducts ABB-855) 5 times for 5 minutes each. Plates were blocked for 1 hour with 50μ.1 of Odyssey blocking buffer (Licor #327-50000) at room temperature with rocking. […]

[6] = pH 2, aqueous buffer, PBS pH 2.0, 25° C., read-out: Solubility at pH 2.0
[7] = pH 7.4, aqueous buffer, PBS pH 7.4, 25° C., read-out: Solubility at pH 7.4

USP1/UAF1 enzyme, sequence (O94782 whole entry): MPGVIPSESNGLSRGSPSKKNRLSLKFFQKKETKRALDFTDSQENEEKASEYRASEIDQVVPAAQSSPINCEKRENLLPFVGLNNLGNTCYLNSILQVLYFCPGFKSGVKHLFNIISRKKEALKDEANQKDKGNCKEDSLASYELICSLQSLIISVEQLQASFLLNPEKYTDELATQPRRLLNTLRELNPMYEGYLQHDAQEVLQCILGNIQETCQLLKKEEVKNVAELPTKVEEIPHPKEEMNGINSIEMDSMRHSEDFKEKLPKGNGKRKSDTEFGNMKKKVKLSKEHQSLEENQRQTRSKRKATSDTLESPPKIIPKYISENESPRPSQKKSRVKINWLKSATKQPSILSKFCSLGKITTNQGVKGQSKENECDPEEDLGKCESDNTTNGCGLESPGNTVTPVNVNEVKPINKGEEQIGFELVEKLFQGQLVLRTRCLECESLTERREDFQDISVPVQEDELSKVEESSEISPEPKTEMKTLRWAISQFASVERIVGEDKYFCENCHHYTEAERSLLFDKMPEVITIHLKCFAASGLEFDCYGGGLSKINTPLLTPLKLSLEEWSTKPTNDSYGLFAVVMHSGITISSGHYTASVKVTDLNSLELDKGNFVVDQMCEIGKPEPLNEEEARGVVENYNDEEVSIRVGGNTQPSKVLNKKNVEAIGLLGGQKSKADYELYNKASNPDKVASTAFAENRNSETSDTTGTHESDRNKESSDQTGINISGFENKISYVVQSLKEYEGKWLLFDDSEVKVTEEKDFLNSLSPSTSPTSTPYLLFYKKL
USP1/UAF1 enzyme, sequence (Q8TAF3 whole entry partner): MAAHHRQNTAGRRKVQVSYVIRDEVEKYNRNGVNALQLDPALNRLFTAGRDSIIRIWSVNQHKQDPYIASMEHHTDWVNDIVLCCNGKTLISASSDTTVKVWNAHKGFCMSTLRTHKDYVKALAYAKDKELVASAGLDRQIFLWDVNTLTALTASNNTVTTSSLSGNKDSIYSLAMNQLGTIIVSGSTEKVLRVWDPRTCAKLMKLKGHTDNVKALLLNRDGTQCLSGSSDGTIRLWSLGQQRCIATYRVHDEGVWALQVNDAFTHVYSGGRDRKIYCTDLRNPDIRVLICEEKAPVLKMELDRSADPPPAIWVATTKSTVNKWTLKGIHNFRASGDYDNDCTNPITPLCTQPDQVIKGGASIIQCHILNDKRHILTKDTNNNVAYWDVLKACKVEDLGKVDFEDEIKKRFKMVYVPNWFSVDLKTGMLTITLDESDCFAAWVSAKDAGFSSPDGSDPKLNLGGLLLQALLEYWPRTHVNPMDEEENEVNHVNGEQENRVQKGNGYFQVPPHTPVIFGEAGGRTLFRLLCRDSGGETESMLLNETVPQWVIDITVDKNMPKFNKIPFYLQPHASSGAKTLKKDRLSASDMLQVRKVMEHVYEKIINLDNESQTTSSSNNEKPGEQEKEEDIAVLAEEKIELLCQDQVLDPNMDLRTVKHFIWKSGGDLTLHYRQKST

Q: Which results are given for `CCn1cc(C(F)(F)F)nc1-c1ccc(CN2C(=O)CCn3nc(-c4c(C)cnn4C(C)C)cc32)cc1` [Example 9, 4-(4-(1-ethyl-4-(trifluoromethyl)-1H-imidazol-2-yl)benzyl)-2-(1-isopropyl-4-methyl-1H-pyrazol-5-yl)-6,7-dihydropyrazolo[1,5-a]pyrimidin-5(4H)-one]?
A: IC50 [1]: < 100 nM; half-life at 1 μM [2]: < 25 min; half-life at 1 μM [3]: < 25 min; solubility at 24 h [4, 6]: ≥ 10 µM; solubility at 24 h [4, 7]: ≥ 10 µM; IC50 [5]: < 100 nM

Q: What does the source list for `Cc1cnn(C(C)C)c1-c1cc2n(n1)CCC(=O)N2Cc1ccc(-n2nc(C(F)(F)F)cc2C)cc1` [Example 10, 2-(1-isopropyl-4-methyl-1H-pyrazol-5-yl)-4-(4-(5-methyl-3-(trifluoromethyl)-1H-pyrazol-1-yl)benzyl)-6,7-dihydropyrazolo[1,5-a]pyrimidin-5(4H)-one]?
A: IC50 [1]: < 100 nM; half-life at 1 μM [2]: < 25 min; half-life at 1 μM [3]: < 25 min; solubility at 24 h [4, 6]: < 10 µM; solubility at 24 h [4, 7]: < 10 µM; IC50 [5]: 100 to 500 nM

Q: Which results are given for `Cc1cnn(C(C)C)c1-c1cc2n(n1)CCC(=O)N2Cc1ccc(-c2nc(C(F)(F)F)nn2C)cc1` [Example 11, 2-(1-isopropyl-4-methyl-1H-pyrazol-5-yl)-4-(4-(1-methyl-3-(trifluoromethyl)-1H-1,2,4-triazol-5-yl)benzyl)-6,7-dihydropyrazolo[1,5-a]pyrimidin-5(4H)-one]?
A: IC50 [1]: > 500 nM; half-life at 1 μM [2]: < 25 min; half-life at 1 μM [3]: < 25 min; solubility at 24 h [4, 6]: ≥ 10 µM; solubility at 24 h [4, 7]: < 10 µM; IC50 [5]: > 500 nM

Q: What does the source list for `COc1cc(C(F)(F)F)nn1-c1ccc(CN2C(=O)CCn3nc(-c4c(C)cnn4C(C)C)cc32)cc1F` [Example 12, 4-(3-fluoro-4-(5-methoxy-3-(trifluoromethyl)-1H-pyrazol-1-yl)benzyl)-2-(1-isopropyl-4-methyl-1H-pyrazol-5-yl)-6,7-dihydropyrazolo[1,5-a]pyrimidin-5(4H)-one]?
A: IC50 [1]: < 100 nM; half-life at 1 μM [2]: < 25 min; half-life at 1 μM [3]: < 25 min; solubility at 24 h [4, 6]: < 10 µM; solubility at 24 h [4, 7]: < 10 µM; IC50 [5]: 100 to 500 nM

Q: For `COc1cc(C(F)(F)F)nn1-c1ccc(CN2C(=O)CCn3nc(-c4c(Cl)cnn4C(C)C)cc32)cc1F` [Example 14, 2-(4-chloro-1-isopropyl-1H-pyrazol-5-yl)-4-(3-fluoro-4-(5-methoxy-3-(trifluoromethyl)-1H-pyrazol-1-yl)benzyl)-6,7-dihydropyrazolo[1,5-a]pyrimidin-5(4H)-one], which IC50 [1] is on record?
A: < 100 nM

Q: And the half-life at 1 μM [2]?
A: > 25 min

Q: And the half-life at 1 μM [3]?
A: > 25 min

Q: And the solubility at 24 h [4, 6]?
A: < 10 µM

Q: And the solubility at 24 h [4, 7]?
A: < 10 µM

Q: What about the IC50 [5] of the same molecule?
A: < 100 nM

Q: With `CC(C)n1ncc(Cl)c1-c1cc2n(n1)CCC(=O)N2Cc1ccc(-c2nc(C(F)(F)F)cn2C)c(F)c1` [Example 16, 2-(4-chloro-1-isopropyl-1H-pyrazol-5-yl)-4-(3-fluoro-4-(1-methyl-4-(trifluoromethyl)-1H-imidazol-2-yl)benzyl)-6,7-dihydropyrazolo[1,5-a]pyrimidin-5(4H)-one] as the molecule, how does the IC50 [1] read?
A: < 100 nM

Q: And the half-life at 1 μM [2]?
A: > 25 min

Q: What about the half-life at 1 μM [3] of the same molecule?
A: < 25 min

Q: What about the solubility at 24 h [4, 6] of the same molecule?
A: < 10 µM

Q: What about the solubility at 24 h [4, 7] of the same molecule?
A: < 10 µM

Q: What about the IC50 [5] of the same molecule?
A: < 100 nM

Q: With `COc1ncnc(C2CC2)c1-c1cc2n(n1)CCC(=O)N2Cc1ccc(-c2nc(C(F)(F)F)cn2C(C)C)c(F)c1` [Example 18, 2-(4-cyclopropyl-6-methoxypyrimidin-5-yl)-4-(3-fluoro-4-(1-isopropyl-4-(trifluoromethyl)-1H-imidazol-2-yl)benzyl)-6,7-dihydropyrazolo[1,5-a]pyrimidin-5(4H)-one] as the molecule, how does the IC50 [1] read?
A: < 100 nM

Q: And the half-life at 1 μM [2]?
A: > 25 min

Q: And the half-life at 1 μM [3]?
A: > 25 min

Q: What about the solubility at 24 h [4, 6] of the same molecule?
A: < 10 µM

Q: And the solubility at 24 h [4, 7]?
A: < 10 µM

Q: And the IC50 [5]?
A: < 100 nM

Q: For `CC(C)n1cc(C(F)(F)F)nc1-c1ccc(CN2C(=O)CCn3nc(-c4c(Cl)cnn4C(C)C)cc32)cc1F` [Example 20, 2-(4-chloro-1-isopropyl-1H-pyrazol-5-yl)-4-(3-fluoro-4-(1-isopropyl-4-(trifluoromethyl)-1H-imidazol-2-yl)benzyl)-6,7-dihydropyrazolo[1,5-a]pyrimidin-5(4H)-one], which IC50 [1] is on record?
A: < 100 nM

Q: And the half-life at 1 μM [2]?
A: > 25 min

Q: What about the half-life at 1 μM [3] of the same molecule?
A: > 25 min

Q: And the solubility at 24 h [4, 6]?
A: < 10 µM

Q: And the solubility at 24 h [4, 7]?
A: < 10 µM

Q: What about the IC50 [5] of the same molecule?
A: < 100 nM

Q: With `COc1ncnc(C2CCC2)c1-c1cc2n(n1)CCC(=O)N2Cc1ccc(-c2nc(C(F)(F)F)cn2C)c(F)c1` [Example 22] as the molecule, how does the IC50 [1] read?
A: < 100 nM

Q: What about the half-life at 1 μM [2] of the same molecule?
A: < 25 min

Q: What about the half-life at 1 μM [3] of the same molecule?
A: < 25 min

Q: And the solubility at 24 h [4, 6]?
A: ≥ 10 µM

Q: What about the solubility at 24 h [4, 7] of the same molecule?
A: < 10 µM

Q: What about the IC50 [5] of the same molecule?
A: < 100 nM

Q: Which results are given for `COc1ncnc(C2CC2)c1-c1cc2n(n1)CCCN2Cc1ccc(-c2nc(C(F)(F)F)cn2C)cc1` [Example 24, 2-(4-cyclopropyl-6-methoxypyrimidin-5-yl)-4-(4-(1-methyl-4-(trifluoromethyl)-1H-imidazol-2-yl)benzyl)-4,5,6,7-tetrahydropyrazolo[1,5-α]pyrimidine]?
A: IC50 [1]: < 100 nM; half-life at 1 μM [2]: < 25 min; half-life at 1 μM [3]: < 25 min; solubility at 24 h [4, 6]: ≥ 10 µM; solubility at 24 h [4, 7]: ≥ 10 µM; IC50 [5]: < 100 nM

Q: With `COc1ncnc(C)c1-c1cc2n(n1)CCCN2Cc1ccc(-c2nc(C(F)(F)F)cn2C)cc1` [Example 25] as the molecule, how does the IC50 [1] read?
A: 100 to 500 nM

Q: And the half-life at 1 μM [2]?
A: < 25 min

Q: What about the half-life at 1 μM [3] of the same molecule?
A: < 25 min

Q: What about the solubility at 24 h [4, 6] of the same molecule?
A: ≥ 10 µM

Q: What about the solubility at 24 h [4, 7] of the same molecule?
A: ≥ 10 µM

Q: And the IC50 [5]?
A: > 500 nM

Q: Which results are given for `COc1ncnc(C2CC2)c1-c1cc2n(n1)CCCN2Cc1ccc(-n2nc(C(F)(F)F)cc2C)cc1` [Example 27]?
A: IC50 [1]: < 100 nM; half-life at 1 μM [2]: < 25 min; half-life at 1 μM [3]: < 25 min; solubility at 24 h [4, 6]: ≥ 10 µM; solubility at 24 h [4, 7]: < 10 µM; IC50 [5]: < 100 nM

Q: With `CCn1cc(C(F)(F)F)nc1-c1ccc(CN2CC3(CC3)Cn3nc(-c4c(OC)ncnc4C4CC4)cc32)cc1F` [Example 30] as the molecule, how does the IC50 [1] read?
A: < 100 nM

Q: What about the half-life at 1 μM [2] of the same molecule?
A: < 25 min

Q: And the half-life at 1 μM [3]?
A: < 25 min

Q: And the solubility at 24 h [4, 6]?
A: ≥ 10 µM

Q: And the solubility at 24 h [4, 7]?
A: < 10 µM

Q: What about the IC50 [5] of the same molecule?
A: < 100 nM

Q: Which IC50 [1] does the source give for `COc1ncnc(C2CC2)c1-c1nn2c(c1Cl)N(Cc1ccc(-c3nc(C(F)(F)F)cn3C)cc1)C(=O)CC2` [Example 33, 3-chloro-2-(4-cyclopropyl-6-methoxypyrimidin-5-yl)-4-(4-(1-methyl-4-(trifluoromethyl)-1H-imidazol-2-yl)benzyl)-6,7-dihydropyrazolo[1,5-α]pyrimidin-5(4H)-one] here?
A: < 100 nM

Q: And the half-life at 1 μM [2]?
A: > 25 min

Q: And the half-life at 1 μM [3]?
A: > 25 min

Q: What about the solubility at 24 h [4, 6] of the same molecule?
A: < 10 µM

Q: What about the solubility at 24 h [4, 7] of the same molecule?
A: < 10 µM

Q: What about the IC50 [5] of the same molecule?
A: < 100 nM
